Results: patent US7645784B2, “Benzimidazole derivatives” (AstraZeneca AB, priority 2003, dated 2010)

Molecular target: T1, hVR1 (Homo sapiens, UniProt Q8NER1)
T1 construct: expressed in transfected cells
Experiment: hVR1 FLIPR (Fluorometric Image Plate Reader) screening assay, IC50 determination
Format: cell-based
Conditions: CHO cells stably expressing hVR1
Procedure: 1. hVR1 FLIPR (Fluorometric Image Plate Reader) screening assay
Transfected CHO cells, stably expessing hVR1 (15,000 cells/well) are seeded in 50 μL media in a black clear bottom 384 plate (Greiner) and grown in a humidified incubator (37° C., 2% CO2), 24-30 hours prior to experiment.
Subsequently, the media is removed from the cell plate by inversion and 2 μM Fluo-4 is added using a multidrop (Labsystems). Following the 40 min dye incubation in the dark at 37° C. and 2% CO2, the extracellular dye present is washed away using an EMBLA (Scatron), leaving the cells in 40 μL of assay buffer (1×HBSS, 10 mM D-Glucose, 1 mM CaCl2,10 mM HEPES, 10×7.5% NaHCO3 and 2.5 mM Probenecid).
FLIPR assay—IC50 determination protocol
For IC50 determinations the fluorescence is read using FLIPR filter 1 (em […]). A cellular baseline recording is taken for 30 seconds, followed by a 20 μL addition of 10, titrated half-log concentrations of the test compound, yielding cellular concentration ranging from 3 μM to 0.1 nM. Data is collected every 2 seconds for a further 5 min prior to the addition of a VR1 agonist solution: either 50 nM solution of capsaicin or MES (2-[N-morpholino]ethanesulfonic acid) buffer (pH 5.2), by the FLIPR pipettor. The FLIPR continues to collect data for a further 4 min. Compounds having antagonistic properties against the hVR1 will inhibit the increase in intracellular calcium in response to the capsaicin addition. This consequently leading to a reduction in fluorescence signal and providing a reduced fluorescence reading, compared with no compound, buffer controls. Data is exported by the FLIPR program as a sum of fluorescence calculated under the curve upon the addition of capsaicin. Maximum inhibition, Hill slope and IC50 data for each compound are generated.

T1 sequence (Q8NER1 whole entry): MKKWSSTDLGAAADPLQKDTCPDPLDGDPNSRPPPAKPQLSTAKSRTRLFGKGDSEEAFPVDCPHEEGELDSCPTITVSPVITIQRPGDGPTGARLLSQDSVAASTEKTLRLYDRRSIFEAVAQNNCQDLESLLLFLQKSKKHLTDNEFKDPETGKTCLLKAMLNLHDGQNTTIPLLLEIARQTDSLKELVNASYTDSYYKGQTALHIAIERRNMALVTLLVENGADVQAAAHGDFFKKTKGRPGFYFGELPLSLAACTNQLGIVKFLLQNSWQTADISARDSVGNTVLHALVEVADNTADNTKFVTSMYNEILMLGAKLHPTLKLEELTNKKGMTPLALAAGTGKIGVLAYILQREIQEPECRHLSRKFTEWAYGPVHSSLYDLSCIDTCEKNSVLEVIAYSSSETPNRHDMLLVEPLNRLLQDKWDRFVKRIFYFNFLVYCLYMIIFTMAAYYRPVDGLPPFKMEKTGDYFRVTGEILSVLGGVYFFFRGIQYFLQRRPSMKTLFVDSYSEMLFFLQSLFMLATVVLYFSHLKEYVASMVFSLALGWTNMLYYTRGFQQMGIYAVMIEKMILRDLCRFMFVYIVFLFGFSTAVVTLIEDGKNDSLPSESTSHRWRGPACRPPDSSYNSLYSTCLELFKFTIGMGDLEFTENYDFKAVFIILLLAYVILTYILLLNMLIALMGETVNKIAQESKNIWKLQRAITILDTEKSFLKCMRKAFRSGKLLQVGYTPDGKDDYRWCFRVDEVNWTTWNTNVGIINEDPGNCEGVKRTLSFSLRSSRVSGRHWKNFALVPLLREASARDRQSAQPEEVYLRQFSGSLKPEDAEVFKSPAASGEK

**Q.** How did the IC50 (agonist H+/MES buffer (pH 5.2)) turn out when O=C(Cn1cnc2cccc([N+](=O)[O-])c21)Nc1cc(F)cc(F)c1 [Example 7, N-(3,5-Difluorophenyl)-2-(7-nitro-1H-benzimidazol-1-yl)acetamide] was run?
**A.** Its IC50 is 70 nM.

**Q.** And the IC50 (agonist capsaicin)?
**A.** The IC50 was 50 nM.

**Q.** Which results are given for COC(=O)c1cccc2ncn(CC(=O)Nc3cc(OC)cc(OC)c3)c12 [Example 67, Methyl 1-{2-[(3,5-dimethoxyphenyl)amino]-2-oxoethyl}-1H-benzimidazole-7-carboxylate]?
**A.** IC50 (agonist H+/MES buffer (pH 5.2)): 140 nM; IC50 (agonist capsaicin): 160 nM
